The source of these data is EPA's ToxValDB 9.5 (doi:10.2903/j.efsa.2010.1857).

≈ marks a conversion by molar mass, not a printed value. Bounds are passed on as bounds.

The subject of one data set is Daphnia magna. To be noted: chronic/long-term; duration: 17 days; reproduction.
For another data set, the system named is Colinus virginianus. To be noted: for LC50: diet.
For a further data set, the system named is Rattus norvegicus. The following applies: for NOAEL: histopathology: nonneoplastic.
The test system of the next data set is Poecilus cupreus. To be noted: not reported; morphology.
In the next data set the test system is Oncorhynchus mykiss. To be noted: acute; duration: 96 hours; mortality.
For a further data set, the system named is Cyprinus carpio. The following applies: chronic/long-term; duration: 21 days; growth.
The subject of the next data set is Apis mellifera. To be noted: acute; duration: 48 hours; oral; unspecified; mortality.
The test system of another data set is Anas platyrhynchos. To be noted: acute; oral; unspecified; mortality.

On to `CC1=C(C(=O)Nc2ccccc2)SCCO1` [Carboxin], for which the NOEC stood at 0.32 mg/L in the data set on Daphnia magna; 100 mg/kg with Tagia sp. (chronic/long-term, duration: 56 days); 83 mg/kg-day in the data set on Colinus virginianus (reproduction developmental); 0.32 mg/L in the data set with Cyprinus carpio. Besides, the LC50 is above 500 mg/kg in the data set on Tagia sp. (acute, duration: 14 days, mortality); above 985 mg/kg-day with Colinus virginianus (acute, oral, mortality); 2.3 µg/mL (≈ 9.77 µM) with Oncorhynchus mykiss. The LD50 is above 2150 mg/kg-day in the data set on Colinus virginianus (acute, oral, mortality); 2590 mg/kg-day in the data set with Rattus norvegicus (acute, oral, mortality); above 100 µg/piece in the data set with Apis mellifera. For the same molecule, the NOAEL with Rattus norvegicus (chronic, duration: 2 years, M) was 0.82 mg/kg-day; with Rattus norvegicus (subchronic, duration: 90 days, oral), 5.5 mg/kg-day. In addition, in the data set on Rattus norvegicus (reproduction developmental, reproduction), the NOEL stood at 20 mg/kg-day. This molecule returned an LEL with Poecilus cupreus of 776 mg/kg.
`CC1=C(C(=O)Nc2ccccc2)S(=O)(=O)CCO1` [Oxycarboxin] gave an LC50 with Colinus virginianus (acute, oral, mortality) above 2200 mg/kg-day. In the data set with Anas platyrhynchos, this molecule displayed an LD50 of 1250 mg/kg-day.

In general, NOAEL refers to the highest dose or exposure tested at which no adverse effect was seen.
